# Laboratory results from patent publication US7507766B2, “Treatment of cancers” (Pharma Mar, S.A., priority 2000, dated 2009).
# Starred links: 1 amine or outer side, 2 acyl side, 3 side chain; linkers in the order of their positions; H or OH if unused. Positions of bridges follow the written chain, without caps; N, C: chain ends. Non-standard residues stand in square brackets, D forms with d. Residues, ends and D or L forms follow the SMILES beside them. *: point of attachment. X1 = CC[C@H](C)[C@@H](N[*:1])[C@@H](O)CC(=O)O[C@H](C(=O)[C@H](C)C(=O)[*:2])C(C)C; NMeY = CN[C@@H](Cc1ccc(O)cc1)C(=O)O; dNMeL = CN[C@H](CC(C)C)C(=O)O; Pyruvoyl = CC(=O)C(=O)*
# Columns and labels:
# [1] = Phase I study, 24 h continuous infusion every other week: toxicities; type: in vivo, human
# Protocol: (§1) Definitions for patient toxicities are adopted from WHO Criteria and the responses determined following WHO Response Criteria.
# (§2) A phase I and pharmacokinetic study of aplidine, given as a 24 h continuous infusion every other week in patients with solid tumours and non-Hodgkin lymphoma
# [2] = system: solid tumours and non-Hodgkin lymphoma; assay: clinical trials: antitumour responses in patients; type: in vivo, human
# Protocol: as §1, §2
# MDA-MB231 = conditions: aplidine; cited from earlier work
# MCF-7 = conditions: aplidine 50 mmol/L; cited from earlier work
# spermidine and spermine = conditions: cited from earlier work
# P388 leukaemia = conditions: mice; cited from earlier work
# [3] = system: Non-small cell lung cancer, breast cancer and melanoma cell lines; conditions: cited from earlier work
# CT-1 = conditions: cited from earlier work
# [4] = dose level 200 mcg/m^2/2 wks, of 3 patients
# [5] = dose level 400 mcg/m^2/2 wks, of 3 patients
# [6] = dose level 800 mcg/m^2/2 wks, of 3 patients
# [7] = dose level 1600 mcg/m^2/2 wks, of 6 patients
# [8] = dose level 3200 mcg/m^2/2 wks, of 3 patients
# [9] = dose level 4000 mcg/m^2/2 wks, of 3 patients
# [10] = dose level 5000 mcg/m^2/2 wks, of 3 patients
# [11] = dose level 6000 mcg/m^2/2 wks, of 12 patients
# [12] = dose level 7000 mcg/m^2/2 wks, of 7 patients
structure (smiles),measurement,setting,value
CC[C@H](C)[C@H]1NC(=O)[C@@H](NC(=O)[C@@H](CC(C)C)N(C)C(=O)[C@@H]2CCCN2C(=O)C(C)=O)[C@@H](C)OC(=O)[C@H](Cc2ccc(OC)cc2)N(C)C(=O)[C@@H]2CCCN2C(=O)[C@H](CC(C)C)NC(=O)[C@@H](C)C(=O)[C@H](C(C)C)OC(=O)C[C@@H]1O [aplidine] (Pyruvoyl-P[dNMeL]T[X1]LP[NMeY](Me); ester 3-C),"muscle biopsies, E/M finding",[1]; 2 patients,partial disappearance of thick filaments of myosin
same,"dose limiting toxicity (muscular changes), patients",[1]; 6000 mcg/m^2,1/9
same,time to recovery of toxicity after treatment discontinuation,[1]; Pat #27,≤ 3 weeks
same,"Nausea/vomiting G2, no. patients",[1]; [4],2
same,"Transaminitis G2, no. patients",[1]; [4],1
same,"Asthenia G2, no. patients",[1]; [5],2
same,"Hypertension G2, no. patients",[1]; [5],1
same,"Nausea/vomiting G2, no. patients",[1]; [5],1
same,"Flushing G1, no. patients",[1]; [6],1
same,"Muscle cramps G1 + G2, no. patients",[1]; [6],2
same,"Asthenia G2, no. patients",[1]; [7],2
same,"Asthenia G3, no. patients",[1]; [7],1
same,"Muscle cramps G1 + G2, no. patients",[1]; [7],1
same,"Nausea/vomiting G2, no. patients",[1]; [7],4
same,"Transaminitis G3, no. patients",[1]; [7],(1)
same,"Asthenia G2, no. patients",[1]; [8],1
same,"Flushing G1, no. patients",[1]; [8],1
same,"Muscle cramps G1 + G2, no. patients",[1]; [8],2
same,"Muscle pain G2, no. patients",[1]; [8],(1)
same,"Nausea/vomiting G3, no. patients",[1]; [8],(1)
same,"Asthenia G2, no. patients",[1]; [9],1
same,"Flushing G1, no. patients",[1]; [9],1
same,"Muscle cramps G1 + G2, no. patients",[1]; [9],2
same,"Muscle pain G1, no. patients",[1]; [9],2
same,"Nausea/vomiting G2, no. patients",[1]; [9],2
same,"Pain central catheter G2, no. patients",[1]; [9],2
same,"Asthenia G3, no. patients",[1]; [10],(1)
same,"CPK elevation G3, no. patients",[1]; [10],(1) [1]
same,"CPK elevation G4, no. patients",[1]; [10],(1) [1]
same,"Muscle cramps G1 + G2, no. patients",[1]; [10],2
same,"Muscle pain G1, no. patients",[1]; [10],1
same,"Muscle weakness G1, no. patients",[1]; [10],1
same,"Nausea/vomiting G2, no. patients",[1]; [10],1
same,"Transaminitis G2, no. patients",[1]; [10],1
same,"Asthenia G2, no. patients",[1]; [11],6
same,"CPK elevation G2, no. patients",[1]; [11],1(1)
same,"CPK elevation G3, no. patients",[1]; [11],1(1)
same,"Muscle cramps G1 + G2, no. patients",[1]; [11],1
same,"Muscle pain G1, no. patients",[1]; [11],1
same,"Muscle pain G2, no. patients",[1]; [11],2
same,"Muscle weakness G1, no. patients",[1]; [11],1(1)
same,"Muscle weakness G2, no. patients",[1]; [11],1(1)
same,"Nausea/vomiting G2, no. patients",[1]; [11],2
same,"Asthenia G2, no. patients",[1]; [12],2
same,"CPK elevation G2, no. patients",[1]; [12],1
same,"Flushing G1, no. patients",[1]; [12],1
same,"Muscle pain G1, no. patients",[1]; [12],1
same,"Nausea/vomiting G2, no. patients",[1]; [12],1
same,"Neutrophenia G4, no. patients",[1]; [12],1
same,"Transaminitis G2, no. patients",[1]; [12],1
same,responses in cancer patients,[2]; clinical trials,Responses in cancer patients have been observed
same,antitumour activity in patients,[2]; patients with NHL and renal carcinoma,Antitumour activity has been also noted
same,growth inhibition,MDA-MB231,17%
same,growth inhibition,MCF-7,47%
same,spermidine and spermine in treated cells,spermidine and spermine,significant increase
same,activity against implanted P388 leukaemia,P388 leukaemia,active
same,optimal dose,P388 leukaemia,160 micro/kg
same,growth of tumour cell lines,"[3]; continuous exposure to low concentrations, non-Hodgkin's lymphoma, melanoma, breast, ovarian, non-small cell lung cancers",inhibited the growth
same,concentration at which cell lines were sensitive,[3]; continuous exposure,>= 0.001 micromol/L
same,cytotoxic activity,CT-1,dose-dependent cytotoxic activity
